Assay results as given in patent US20260035367A1 (Celgene Corporation, priority 2021, published 2026).
Counter-ions that a name gives are not always drawn. Like-named read-outs stand apart in the source and are kept apart here.

Experiments:
[1] = biological target: T1, Recombinant human PKC-theta (His-tagged 362-706) (Homo sapiens, UniProt Q04759); assay: PKC-theta inhibition assay (HTRF KinEASE kit); type: biochemical; conditions: STK substrate 525 nM
T1 construct: Recombinant human PKC-theta (His-tagged 362-706); His
Method in brief: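 IC50 values were from 4-parameter logistic fits of percent inhibition, based on acceptor/donor HTRF ratios over 10 semi-log compound doses. Kinase reactions, started with substrate plus ATP, ran 30 min at 25 °C in buffer supplemented with 10 mM MgCl2, 1 mM DTT and 0.1% Tween 20; detection lasted 2 h.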

[2] = system: IL-2 secretion by human effector memory T cells (TEM); assay: Effector memory T cells IL-2 release assay (CD3/CD28 stimulation, HTRF IL-2 detection); type: cell-based; conditions: 24 h; for IC50: Homo sapiens, T-cell
Method in brief: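 Human effector memory T cells from healthy-donor buffy coats were exposed in triplicate to ten semi-log doses of compound in 0.1% DMSO. The cells were stimulated and incubated 24 h at 37 °C. Secreted IL-2 in the supernatant was measured by HTRF.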

[3] = biological target: T2, Recombinant human PKC-delta (His-tagged 345-676) (Homo sapiens, UniProt Q05655); assay: PKC-delta inhibition assay (HTRF KinEASE kit); type: biochemical; conditions: ratio, PKC-theta vs PKC-delta HTRF; for PKC-theta/PKC-delta selectivity (binned): binned A to G
T2 construct: PKC-delta (His-tagged 345-676); His
Description: PKC-theta and PKC-delta biochemical activities were measured using the PKC-theta HTRF KinEASEkit kit, according to manufacturer's instructions (Cisbio, catalogue number 61ST1PEJ). Briefly, the kinase buffer component of the kit was supplemented with 10 mM MgCl2, 1 mM DTT and 0.1% Tween 20. […] The streptavidin_XL665 and STK antibody-cryptate detection reagents were mixed according to the manufacturer's instructions. Test compounds were diluted in DMSO in a series of 10 semi-log step doses; 10 nL of each compound dose were dispensed in 384 well plates. […] The reaction was started by addition of the substrate and ATP and incubated at 25° C. for 30 minutes or 20 minutes for the PKC-theta and PKC-delta assays, respectively. The detection reagents were added, and the plate was incubated in the dark for 2 hours. […] The ratio of acceptor and donor emission signals was calculated for each well.

[4] = binned A to G, read-out: PKC-theta IL2 pIC50 (binned) (converted)
[5] = read-out: PKC-theta IL2 pIC50 (converted)
[6] = ATP 6.5 μM, binned A to H, read-out: PKC-theta HTRF pIC50 (binned) (converted)
[7] = ATP 6.5 μM, read-out: PKC-theta HTRF pIC50 (converted)

T2 sequence (Q05655 345-676): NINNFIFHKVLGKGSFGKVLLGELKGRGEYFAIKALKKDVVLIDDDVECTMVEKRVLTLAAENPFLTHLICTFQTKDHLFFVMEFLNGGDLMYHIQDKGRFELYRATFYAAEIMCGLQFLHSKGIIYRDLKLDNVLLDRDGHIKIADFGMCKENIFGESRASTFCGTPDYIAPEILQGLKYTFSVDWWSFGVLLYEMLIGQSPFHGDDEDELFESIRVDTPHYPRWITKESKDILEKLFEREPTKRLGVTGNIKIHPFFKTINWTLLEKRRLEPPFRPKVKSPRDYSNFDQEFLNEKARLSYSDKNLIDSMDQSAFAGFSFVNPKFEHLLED
T1 sequence (Q04759 362-706): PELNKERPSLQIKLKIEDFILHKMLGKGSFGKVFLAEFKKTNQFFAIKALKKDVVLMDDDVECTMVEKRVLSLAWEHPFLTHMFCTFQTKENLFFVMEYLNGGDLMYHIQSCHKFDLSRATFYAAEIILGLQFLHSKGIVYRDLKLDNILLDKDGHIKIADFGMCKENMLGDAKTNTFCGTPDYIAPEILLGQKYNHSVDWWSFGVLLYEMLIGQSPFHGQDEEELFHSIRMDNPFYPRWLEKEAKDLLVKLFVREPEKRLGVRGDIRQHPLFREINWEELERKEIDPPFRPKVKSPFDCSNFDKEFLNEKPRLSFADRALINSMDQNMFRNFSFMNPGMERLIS

CC1(C)C(=O)Nc2nccc(-c3cc(F)cc(CN4CCNCC4)c3)c21 [Example 32, 4-[3-fluoro-5-(piperazin-1-ylmethyl)phenyl]-3,3-dimethyl-1H-pyrrolo[2,3-b]pyridin-2-one; dihydrochloride]
IC50 ([1]; PKC-theta HTRF pIC50 (binned), ATP 6.5 μM, binned A to H): 100 to 316 nM
IC50 ([1]; PKC-theta HTRF pIC50, ATP 6.5 μM): 200 nM
IC50 [2, 4]: > 1000 nM
IC50 [2, 5]: 3980 nM
PKC-theta/PKC-delta selectivity [3]: 3
PKC-theta/PKC-delta selectivity (binned) [3]: F (a ratio of between 1 and 5)

O=c1[nH]c2nccc(-c3cccc(CN4CCNCC4)c3)c2[nH]1 [Example 20]
IC50 [1, 6]: > 1000 nM
IC50 [1, 7]: 3980 nM
IC50 [2, 4]: > 1000 nM
IC50 [2, 5]: 10000 nM
PKC-theta/PKC-delta selectivity (binned) [3]: G (a ratio of 0 to 1)

C[C@H]1CN(c2cc(Cl)cc(-c3ccnc4c3C(C)(O)C(=O)N4)n2)CCN1 (some centres unmarked) [Example 208]
IC50 [1, 6]: 1 to 3.16 nM
IC50 [1, 7]: 2 nM
IC50 [2, 4]: 10 to 31.6 nM
IC50 [2, 5]: 20 nM
PKC-theta/PKC-delta selectivity [3]: 12
PKC-theta/PKC-delta selectivity (binned) [3]: D (a ratio of between 10 and 20)

O=C1Nc2nccc(-c3cc(F)cc(N4CCNCC4)c3)c2C12CC2 [Example 34]
IC50 [1, 6]: > 1000 nM
IC50 [1, 7]: 1000 nM
IC50 [2, 4]: > 1000 nM
IC50 [2, 5]: 3980 nM
PKC-theta/PKC-delta selectivity [3]: 2
PKC-theta/PKC-delta selectivity (binned) [3]: F (a ratio of between 1 and 5)

CC1(O)C(=O)Nc2nccc(-c3cc(Cl)cc(N4CCNCC4)c3)c21 (centres unmarked) [Example 55]
IC50 [1, 6]: 10 to 31.6 nM
IC50 [1, 7]: 10 nM
IC50 [2, 4]: 316 to 1000 nM
IC50 [2, 5]: 398 nM
PKC-theta/PKC-delta selectivity [3]: 9
PKC-theta/PKC-delta selectivity (binned) [3]: E (a ratio of between 5 and 10)

CC1(C)C(=O)Nc2nccc(-c3cc(C(F)(F)F)cc(N4C[C@H]5CC[C@@H](C4)N5)n3)c21 [Example 135]
IC50 [1, 6]: 10 to 31.6 nM
IC50 [1, 7]: 20 nM
IC50 [2, 4]: 100 to 316 nM
IC50 [2, 5]: 316 nM
PKC-theta/PKC-delta selectivity [3]: 13
PKC-theta/PKC-delta selectivity (binned) [3]: D (a ratio of between 10 and 20)

CC[C@H]1CN(c2cc(Cl)cc(-c3ccnc4c3[C@@](C)(OC)C(=O)N4)n2)CCN1 (single isomer, unassigned) [Example 152]
IC50 [1, 6]: 3.16 to 10 nM
IC50 [1, 7]: 6.31 nM
PKC-theta IL2 pIC50 [2]: 7.1
PKC-theta IL2 pIC50 (binned) ([2]; binned A to G): D (a measured pIC50 of between 7.0 and 7.5)
PKC-theta/PKC-delta selectivity [3]: 11
PKC-theta/PKC-delta selectivity (binned) [3]: D (a ratio of between 10 and 20)

CC1(C)C(=O)Nc2nccc(-c3cc(C(F)F)cc(N4CCNCC4)n3)c21 [Example 87]
IC50 [1, 6]: 3.16 to 10 nM
IC50 [1, 7]: 6.31 nM
IC50 [2, 4]: 100 to 316 nM
IC50 [2, 5]: 100 nM
PKC-theta/PKC-delta selectivity [3]: 10
PKC-theta/PKC-delta selectivity (binned) [3]: D (a ratio of between 10 and 20)

CC1C(=O)Nc2nccc(-c3cccc(N4CCNCC4)c3)c21 (centres unmarked) [Example 5]
IC50 [1, 6]: 31.6 to 100 nM
IC50 [1, 7]: 79.4 nM
IC50 [2, 4]: 316 to 1000 nM
IC50 [2, 5]: 794 nM
PKC-theta/PKC-delta selectivity [3]: 4
PKC-theta/PKC-delta selectivity (binned) [3]: F (a ratio of between 1 and 5)

C[C@@]1(O)C(=O)Nc2nccc(-c3cc(C(F)(F)F)cc(N4CCNC(CF)C4)n3)c21 (single isomer, unassigned) [Example 109]
IC50 [1, 6]: 3.16 to 10 nM
IC50 [1, 7]: 3.98 nM
IC50 [2, 4]: 316 to 1000 nM
IC50 [2, 5]: 794 nM
PKC-theta/PKC-delta selectivity [3]: 29
PKC-theta/PKC-delta selectivity (binned) [3]: C (a ratio of between 20 and 30)

C[C@H]1CNCCN(c2cc(C(F)(F)F)cc(-c3ccnc4c3C(C)(C)C(=O)N4)n2)C1 [Example 181]
IC50 [1, 6]: 10 to 31.6 nM
IC50 [1, 7]: 12.6 nM
IC50 [2, 4]: 100 to 316 nM
IC50 [2, 5]: 158 nM
PKC-theta/PKC-delta selectivity [3]: 12
PKC-theta/PKC-delta selectivity (binned) [3]: D (a ratio of between 10 and 20)

CC1(C)C(=O)Nc2nccc(-c3cccc(N(CC4COC4)C4CCCNC4)c3)c21 (centres unmarked) [Example 26]
IC50 [1, 6]: 100 to 316 nM
IC50 [1, 7]: 158 nM
IC50 [2, 4]: > 1000 nM
IC50 [2, 5]: 2510 nM
PKC-theta/PKC-delta selectivity [3]: 2
PKC-theta/PKC-delta selectivity (binned) [3]: F (a ratio of between 1 and 5)

C[C@@H]1CN(c2cc(Cl)cc(-c3ccnc4c3[C@](C)(O)C(=O)N4)n2)CCN1 (single isomer, unassigned) [Example 89]
IC50 [1, 6]: 1 to 3.16 nM
IC50 [1, 7]: 3.16 nM
IC50 [2, 4]: 31.6 to 100 nM
IC50 [2, 5]: 63.1 nM
PKC-theta/PKC-delta selectivity [3]: 17
PKC-theta/PKC-delta selectivity (binned) [3]: D (a ratio of between 10 and 20)

CC1(C)C(=O)Nc2nccc(-c3cc(C(F)(F)F)cc(N4CC5CC(C4)N5)n3)c21 [Example 150]
IC50 [1, 6]: 31.6 to 100 nM
IC50 [1, 7]: 63.1 nM
IC50 [2, 4]: > 1000 nM
IC50 [2, 5]: 1260 nM
PKC-theta/PKC-delta selectivity [3]: 13
PKC-theta/PKC-delta selectivity (binned) [3]: D (a ratio of between 10 and 20)

O=C1Cc2c(-c3cccc(N4CCNCC4)c3)ccnc2N1 [Example 4]
IC50 [1, 6]: 100 to 316 nM
IC50 [1, 7]: 251 nM
IC50 [2, 4]: > 1000 nM
IC50 [2, 5]: 5010 nM
PKC-theta/PKC-delta selectivity [3]: 8
PKC-theta/PKC-delta selectivity (binned) [3]: E (a ratio of between 5 and 10)

CC1(C)C(=O)Nc2ncc(C#N)c(-c3cc(F)cc(N4CCNCC4)c3)c21 [Example 64]
IC50 [1, 6]: 316 to 1000 nM
IC50 [1, 7]: 501 nM
IC50 [2, 4]: > 1000 nM
IC50 [2, 5]: 5010 nM
PKC-theta/PKC-delta selectivity [3]: 2
PKC-theta/PKC-delta selectivity (binned) [3]: F (a ratio of between 1 and 5)

CC1(C)C(=O)Nc2nccc(-c3cc(C(F)(F)F)cc(N4CCNC(C(C)(C)O)C4)n3)c21 (centres unmarked) [Example 124]
IC50 [1, 6]: 3.16 to 10 nM
IC50 [1, 7]: 3.98 nM
IC50 [2, 4]: 100 to 316 nM
IC50 [2, 5]: 158 nM
PKC-theta/PKC-delta selectivity [3]: 16
PKC-theta/PKC-delta selectivity (binned) [3]: D (a ratio of between 10 and 20)

CC1(C)CN(c2cc(C(F)(F)F)cc(-c3ccnc4c3[C@](C)(O)C(=O)N4)n2)CCN1 (single isomer, unassigned) [Example 134]
IC50 [1, 6]: 3.16 to 10 nM
IC50 [1, 7]: 7.94 nM
IC50 [2, 4]: 100 to 316 nM
IC50 [2, 5]: 100 nM
PKC-theta/PKC-delta selectivity [3]: 10
PKC-theta/PKC-delta selectivity (binned) [3]: D (a ratio of between 10 and 20)

CC1(C)C(=O)Nc2nccc(-c3cc(C(F)(F)F)cc(N4CC5CC4CN5)n3)c21 (centres unmarked) [Example 85]
IC50 [1, 6]: 10 to 31.6 nM
IC50 [1, 7]: 20 nM
IC50 [2, 4]: 316 to 1000 nM
IC50 [2, 5]: 316 nM
PKC-theta/PKC-delta selectivity [3]: 20
PKC-theta/PKC-delta selectivity (binned) [3]: D (a ratio of between 10 and 20)

CC1(C)C(=O)Nc2nccc(-c3cccc(OC4CCNCC4)c3)c21 [Example 47]
IC50 [1, 6]: 100 to 316 nM
IC50 [1, 7]: 316 nM
IC50 [2, 4]: > 1000 nM
IC50 [2, 5]: 2510 nM
PKC-theta/PKC-delta selectivity [3]: 2
PKC-theta/PKC-delta selectivity (binned) [3]: F (a ratio of between 1 and 5)

CC1(C)C(=O)Nc2nccc(-c3cc(C(F)(F)F)nc(N4CCNCC4)n3)c21 [Example 98]
IC50 [1, 6]: 10 to 31.6 nM
IC50 [1, 7]: 20 nM
IC50 [2, 4]: 100 to 316 nM
IC50 [2, 5]: 316 nM
PKC-theta/PKC-delta selectivity [3]: 15
PKC-theta/PKC-delta selectivity (binned) [3]: D (a ratio of between 10 and 20)

C[C@@H]1CN(c2ccc(Cl)c(-c3ccnc4c3[C@](C)(O)C(=O)N4)c2)CCN1 [Example 106]
IC50 [1, 6]: 316 to 1000 nM
IC50 [1, 7]: 1000 nM
IC50 [2, 4]: > 1000 nM
IC50 [2, 5]: 10000 nM
PKC-theta/PKC-delta selectivity [3]: 10
PKC-theta/PKC-delta selectivity (binned) [3]: D (a ratio of between 10 and 20)

CO[C@]1(C)C(=O)Nc2nccc(-c3cc(C(C)(F)F)cc(N4CCNC[C@H]4C)n3)c21 (single isomer, unassigned) [Example 193]
IC50 [1, 6]: 3.16 to 10 nM
IC50 [1, 7]: 10 nM
IC50 [2, 4]: 31.6 to 100 nM
IC50 [2, 5]: 79.4 nM
PKC-theta/PKC-delta selectivity [3]: 16
PKC-theta/PKC-delta selectivity (binned) [3]: D (a ratio of between 10 and 20)

C[C@@H]1CN(c2cc(C(F)(F)F)cc(-c3ccnc4c3[C@](C)(O)C(=O)N4)n2)CCN1 (single isomer, unassigned) [Example 108]
IC50 [1, 6]: 10 to 31.6 nM
IC50 [1, 7]: 12.6 nM
IC50 [2, 4]: 100 to 316 nM
IC50 [2, 5]: 126 nM
PKC-theta/PKC-delta selectivity [3]: 15
PKC-theta/PKC-delta selectivity (binned) [3]: D (a ratio of between 10 and 20)

CC1(C)C(=O)Nc2nccc(-c3cc(Cl)cc(N4CCNCC4)c3)c21 [Example 40]
IC50 [1, 6]: 31.6 to 100 nM
IC50 [1, 7]: 31.6 nM
IC50 [2, 4]: 316 to 1000 nM
IC50 [2, 5]: 398 nM
PKC-theta/PKC-delta selectivity [3]: 4
PKC-theta/PKC-delta selectivity (binned) [3]: F (a ratio of between 1 and 5)

C[C@H]1CN(c2cccc(-c3ccnc4c3C(C)(C)C(=O)N4)c2)CCN1 [Example 52]
IC50 [1, 6]: 100 to 316 nM
IC50 [1, 7]: 126 nM
IC50 [2, 4]: > 1000 nM
IC50 [2, 5]: 1580 nM
PKC-theta/PKC-delta selectivity [3]: 2
PKC-theta/PKC-delta selectivity (binned) [3]: F (a ratio of between 1 and 5)

C[C@H]1CNCCN1c1cc(F)cc(-c2ccnc3c2C(C)(O)C(=O)N3)c1 (some centres unmarked) [Example 58]
IC50 [1, 6]: 10 to 31.6 nM
IC50 [1, 7]: 12.6 nM
IC50 [2, 4]: 316 to 1000 nM
IC50 [2, 5]: 316 nM
PKC-theta/PKC-delta selectivity [3]: 7
PKC-theta/PKC-delta selectivity (binned) [3]: E (a ratio of between 5 and 10)

C[C@@H]1CCNCCN1c1cc(C(F)(F)F)cc(-c2ccnc3c2C(C)(C)C(=O)N3)n1 [Example 188]
IC50 [1, 6]: 3.16 to 10 nM
IC50 [1, 7]: 6.31 nM
IC50 [2, 4]: 31.6 to 100 nM
IC50 [2, 5]: 100 nM
PKC-theta/PKC-delta selectivity [3]: 28
PKC-theta/PKC-delta selectivity (binned) [3]: C (a ratio of between 20 and 30)
